Test results as given in patent publication US20120164731A1, “METHOD OF INDUCING DIFFERENTIATION FROM PLURIPOTENT STEM CELLS TO SKELETAL MUSCLE PROGENITOR CELLS” (KYOTO UNIVERSITY, priority 2009, published 2012).

What was measured:
iPS-DsRed = assay: Induction of differentiation from primitive streak mesodermal cells to skeletal muscle progenitor cells (SM/C-2.6 FACS, Myf5 RT-PCR); type: cell-based, mouse
Protocol: (§1) Undifferentiated cells were detached from the dish as in the passage subculture, and twice washed with the differentiation induction basal medium. 10 ml of the culture medium for the first 3 days was added to a 10 cm cell culture dish coated with collagen type IV (Nitta Gelatin), and 500,000 undifferentiated iPS cells were seeded thereinto. The cells were cultured in an incubator adjusted to 37° C., 5% CO2, and 100% humidity for 3 days, after which the medium was replaced with the culture medium for the last 3 days. The cells were thus differentiation-induced for a total of 6 days, from which skeletal muscle progenitor cells were separated by the method of cell separation described below, and these were used in the subsequent experiments.
(§2) The mouse iPS cells induced by the above-described differentiation induction method were divided into a population of skeletal muscle progenitor cells and a population of other cells using FACS Aria (Becton Dickinson). The cells were stained using antibodies as described previously [Sakurai, H. et al., Stem Cells 24, 575-586 (2006)]. Three different rat monoclonal antibodies were used: APA5 (anti-PDGFRα), ECCD2 (anti-ECD) and SM/C-2.6. The former two were supplied by Dr. Nishikawa [Sakurai, H. et al., Stem Cells 24, 575-586 (2006)], and the remaining one by Dr. Yamamoto [Fukada, S. et al., Exp Cell Res., 296, 245-255 (2004)]. The APA5 and SM/C-2.6 were conjugated with biotin (PIERCE) and fluorescently labeled using streptavidin-APC as a secondary antibody. The ECCD2 was directly conjugating with Alexa488 (Molecular Probes) by a conventional method and fluorescently labeled. The fluorescently labeled cells were suspended in Hanks' balanced salt solution (Invitrogen) supplemented with 1% bovine serum albumin to obtain a cell density of 5,000,000 cells per mL, fluorescence was examined and analyzed using FACS Aria, and the PDGFRα-positive fraction was separated and recovered.
RNA was extracted from the recovered cells using Sepasol Reagent (Nacalai Tesque). cDNA was synthesized from the RNA using the SuperScriptll reverse transcription kit (Invitrogen). DNA was amplified by 25-35 cycles of PCR reaction using the ExTaq PCR reagent kit (Takara Bio) and the PTC200 thermal cycler (DNA engine), and analyzed by electrophoresis. The PCR primers shown below were used.
To find a method for effectively inducing the differentiation, the present inventors investigated the potential of the Wnt signal inducer LiCl, used alone or in combination with other growth factors, for inducing the differentiation of iPS cells into skeletal muscle progenitor cells. Selected growth factor candidates, i.e., Sonic Hedgehog (Shh) and IGF-1, were added to the differentiation medium for the last 3 days, and their influences on differentiation into skeletal muscle progenitor cells were examined (FIG. 3A). The iPS cell used was iPS-DsRed. The degree of differentiation into skeletal muscle progenitor cells was analyzed with the expression of SM/C-2.6 as an index. Also analyzed was the expression of Myf5, which is a skeletal muscle-specific transcription factor in the RNA as a whole. SM/C-2.6 is a marker capable of specifically staining satellite cells, which are skeletal muscle stem cells [Fukada, S. et al., Exp Cell Res., 296, 245-255 (2004)], and has been reported to enable the separation of skeletal muscle progenitor cells from a mouse ES cell induction system [Chang, H. et al., Generation of transplantable, functional satellite-like cells from mouse embryonic stem cells. Faseb J., 23: 1907-1919 (2009)].
First, the influence of the addition of Shh was determined. iPS-DsRed was induced to differentiate as illustrated in FIG. 3A. During the last 3 days, the cells were cultured in the presence of LiCl, alone or with the addition of Shh 20 ng/ml; the cells were induced to differentiate for a total of 6 days, stained with SM/C-2.6, and evaluated.

iPS cells = assay: Timing of LiCl addition, appearance efficiency of PDGFRα-positive fraction by FACS; type: cell-based, mouse; details: continuous addition of LiCl from day 1 or day 2 from start of differentiation induction
Protocol: A method of increasing the appearance efficiency of skeletal muscle progenitor cells derived from iPS cells was studied. Specifically, LiCl, which was added on day 3 from the start of the differentiation induction in the previous Examples, was added from a different day. Samples with addition of LiCl from day 0, 1, 2, 3 or 4 from the start of the differentiation induction were analyzed for the appearance efficiency of the PDGFRα-positive fraction by FACS analysis. As a result, not less than 60% of the induction efficiency could be reproduced by continuous addition of LiCl from day 1 or day 2 from the start of the differentiation induction (FIG. 8B). This method could also be reproduced with other iPS cell clone (iPS-Ng-20D-17).

[1] = system: mouse iPS cells (iPS-Nanog-20D-17); assay: Induction of differentiation from iPS cells to primitive streak mesodermal cells (PDGFRα FACS, viable cell count); type: cell-based; details: for cell proliferation / survival: IGF-1 and/or HGF added or not
Protocol: Differentiation of iPS cells was induced using a serum-free basal medium for differentiation induction prepared by adding 0.2% bovine serum albumin (Sigma), 100 μM 2-mercaptoethanol (Invitrogen), 50 mU/L penicillin and 50 μg/L streptomycin to S-Clone SF-03 (Sanko Junyaku Co., Ltd.). Various growth factors were added to the medium, and their effects were examined. Eventually, the following growth factors were used at the concentrations indicated.
as §1, §2
With this in mind, a first experiment was performed to determine whether the addition of growth factors other than BMP4 supports the survival of iPS cells and promotes their differentiation into primitive streak mesodermal cells (hereinafter sometimes simply referred to as “mesoderm”). Activin A, IGF-1, and HGF were examined as growth factor candidates (FIG. 1A, italicized). With Activin A added to all culture conditions examined, 4 conditions were analyzed: “neither IGF-1 nor HGF was added”, “IGF-1 was added alone”, “HGF was added alone”, and “both were added”. The iPS cell used was iPS-Nanog-20D-17. […] However, the viable cell count was about 3 times higher in the IGF-1-alone addition group than in the IGF-1-HGF-concurrent addition group (FIG. 1B, right).
The influences of the concentrations of BMP4 and Activin A in the induction of differentiation from iPS cells to primitive streak mesodermal cells were examined. Specifically, of the addition conditions of Activin A 10 ng/ml, BMP4 10 ng/ml, and IGF-1 10 ng/ml determined in the previous section, the concentration of Activin A alone (FIG. 2A) or BMP4 alone (FIG. 2B) was changed, and the expression of PDGFRα was evaluated by FACS.

[2] = IGF-1 experiment, IGF-1-free or IGF-1 added, irrespective of concentration
[3] = Shh experiment, LiCl alone or with Shh during last 3 days
[4] = iPS-Nanog-20D-17, Activin A added to all conditions
[5] = induction of skeletal muscle progenitor cells, last 3 days

## [Cl-].[Li+] [LiCl, lithium chloride, reference compound]
iPS-DsRed; IGF-1-free group, last 3 days
  percentage of SM/C-2.6-positive cells: 11.9%
iPS-DsRed; [2]
  expression of Myf5 (RT-PCR): no expression of Myf5 was observed
iPS-DsRed; [3]
  expression of Myf5 (RT-PCR): not observed at all
iPS-DsRed; Shh-free group: LiCl alone during last 3 days, total 6 days
  percentage of SM/C-2.6-positive cells: 28.5%
iPS cells
  induction efficiency (PDGFRα-positive fraction): not less than 60%

## HGF: growth factor candidate examined with Activin A and IGF-1
[1]; [4]
  cell proliferation / survival: little cells surviving

## insulin-like growth factor-1 [IGF-1]
[1]; iPS-Nanog-20D-17, Activin A added to all conditions, with BMP4, starting 3 days
  differentiation rate (mesoderm differentiation, expression of PDGFRα as an index): 61.5%
[1]; [4]
  cell proliferation / survival: Cell proliferation was observed
[1]; iPS-Nanog-20D-17, with Activin A
  viable cell count, IGF-1-alone addition group versus IGF-1-HGF-concurrent addition group: about 3 times
iPS-DsRed; IGF-1 5 ng/ml addition group, last 3 days
  percentage of SM/C-2.6-positive cells: 16.8%
iPS-DsRed; [2]
  expression of Myf5 (RT-PCR): the expression of Myf5 was evident
iPS-DsRed; [5]
  effective concentration: ≥ 5 ng/mL

## sonic hedgehog [Shh]
iPS-DsRed; Shh 20 ng/ml addition group, with LiCl, last 3 days, total 6 days
  percentage of SM/C-2.6-positive cells: 38.8%
iPS-DsRed; [3]
  expression of Myf5 (RT-PCR): Myf5 was expressed
iPS-DsRed; [5]
  optimal concentration: about 20 ng/ml

B1: Activin A (protein, UniProt P08476 311-426, looked up)
Inhibin beta A chain: GLECDGKVNICCKKQFFVSFKDIGWNDWIIAPSGYHANYCEGECPSHIAGTSGSSLSFHSTVINHYRMRGHSPFANLKSCCVPTKLRPMSMLYYDDGQNIIKKDIQNMIVEECGCS
modifications: Inhibin beta A chain
notes: growth factor (Peprotech) added to the differentiation medium for the first 3 days
[1]; Activin A at 5 ng/ml or more, BMP4 10 ng/ml, IGF-1 10 ng/ml
  percentage of PDGFRα-positive cells induced: exceeded 40%
[1]; BMP4 10 ng/ml, IGF-1 10 ng/ml
  viable cell count for Activin A 0 ng/ml compared with 10 ng/ml: about one-sixth level
[1]; based on PDGFRα-positive percentage and viable cell count
  concentrations at which more effective: 5 to 10 ng/mL
[1]; [4]
  cell proliferation / survival: some cells survived

B2: bone morphogenetic protein 4 (protein, UniProt P12644 293-408, looked up)
Bone morphogenetic protein 4: SPKHHSQRARKKNKNCRRHSLYVDFSDVGWNDWIVAPPGYQAFYCHGDCPFPLADHLNSTNHAIVQTLVNSVNSSIPKACCVPTELSAISMLYLDEYDKVVLKNYQEMVVEGCGCR
notes: as for B1
[1]; Activin A 10 ng/ml, IGF-1 10 ng/ml
  viable cell count when BMP4 concentration decreased: remained nearly constant
[1]; BMP4 10 ng/ml, Activin A 10 ng/ml, IGF-1 10 ng/ml
  percentage of PDGFRα-positive cells: 44.7%
[1]; BMP4 at all concentrations of 5 ng/ml or less, Activin A 10 ng/ml, IGF-1 10 ng/ml
  percentage of PDGFRα-positive cells: 25-28%
